Assay results from PMC8041284, “Tunable Methacrylamides for Covalent Ligand Directed Release Chemistry” (Journal of the American Chemical Society, 2021).
*1 amine or outer side, *2 acyl side, *3 side chain or, on linkers, in order; H or OH if unused. Where a SMILES comes first, the peptide text is derived from it. Bridges are numbered along the chain shown (N, C = ends). Roman numbers before positions name the chains, in order. [ ]: non-standard residue; d: D form. Hexamethylenediamine = C(CCCN[*:2])CCN[*:1]; Dip = N[C@H](C(=O)O)C(c1ccccc1)c1ccccc1; Chg = N[C@H](C(=O)O)C1CCCCC1; NMeA = CN[C@@H](C)C(=O)O

Each compound was assayed against BTK (Homo sapiens, UniProt Q06187) (assay: biochemical). Conditions: read-out: BTK inhibition (%), 0.75 uM BTK, […] probe 3l, 15 min preincubation.
Chain of BTK (Q06187 402-655 limits assumed): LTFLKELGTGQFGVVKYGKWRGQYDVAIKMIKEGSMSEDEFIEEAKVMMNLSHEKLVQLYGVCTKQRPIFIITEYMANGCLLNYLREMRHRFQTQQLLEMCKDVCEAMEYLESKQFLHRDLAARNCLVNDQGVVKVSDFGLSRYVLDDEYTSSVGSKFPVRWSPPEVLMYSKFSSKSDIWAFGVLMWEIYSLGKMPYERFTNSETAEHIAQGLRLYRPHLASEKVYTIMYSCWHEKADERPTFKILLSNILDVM

Row | Structure (SMILES) | inhibition at 10 µM [%]
1 | CN[C@@H](C)C(=O)N[C@H](C(=O)N1CCC[C@H]1C(=O)N[C@H](C(=O)NCCCCCCNC(=O)[C@@H](NC(=O)[C@@H]1CCCN1C(=O)[C@@H](NC(=O)[C@H](C)NC)C1CCCCC1)C(c1ccccc1)c1ccccc1)C(c1ccccc1)c1ccccc1)C1CCCCC1 [PCM-0214574] (I: H-[NMeA][Chg]P[Dip] / II: H-[NMeA][Chg]P[Dip]; linker I:C-II:C via Hexamethylenediamine) | -1.5
2 | O=C1C=CC[C@@H]2[C@H]3CCCN4CCC[C@@H](CN12)[C@@H]34 [PCM-0094851] | 13.2
3 | CCCC(CCC)C(=O)OC1C[C@H]2CC[C@@H](C1)[N+]2(C)C (stereo partly shown) [PCM-0215249] | -37.4
4 | O=C(/C=C/c1ccc(O)cc1)c1ccc(O)cc1O [PCM-0065490] | 17.1
5 | C[C@@H]1O[C@@H](O[C@H]2[C@H](O)[C@@H](O)[C@H](OC[C@H]3O[C@@H](OC(=O)[C@]45CCC(C)(C)C[C@H]4C4=CC[C@@H]6[C@@]7(C)CC[C@H](O[C@@H]8OC[C@H](O)[C@H](O)[C@H]8O)[C@@](C)(CO)[C@@H]7CC[C@@]6(C)[C@]4(C)CC5)[C@H](O)[C@@H](O)[C@@H]3O)O[C@@H]2CO)[C@H](O)[C@H](O)[C@H]1O [PCM-0216340] | -10.2
6 | COc1ccc(COc2ccc(CC#N)cc2)cc1 [PCM-0215565] | -9.3
7 | O=c1cc(-c2ccc(O)cc2)oc2cccc(O)c12 [PCM-0216294] | 32.4
8 | CC(C(=O)O)c1ccc(C(=O)c2cccs2)cc1 (stereo not shown) [PCM-0086408] | -1.4
9 | CNC(=O)c1cc(COc2nnc(Nc3ccc(Cl)cc3)c3ccoc23)ccn1 [PCM-0095270] | 15.2
10 | C=CCS[S+]([O-])CC=C (stereo not shown) [PCM-0215928] | -21
11 | Nc1nc(N)nc(-c2cc(Cl)ccc2Cl)n1 [PCM-0086432] | 4.3
12 | CN1CCN(CCOc2cc(OC3CCOCC3)c3c(Nc4c(Cl)ccc5c4OCO5)ncnc3c2)CC1 [PCM-0094889] | 59.3
13 | CC(=O)O[C@@]12CO[C@@H]1C[C@H](O)[C@@]1(C)C(=O)[C@H](O)C3=C(C)[C@@H](OC(=O)[C@H](O)[C@@H](NC(=O)c4ccccc4)c4ccccc4)C[C@@](O)([C@@H](OC(=O)c4ccccc4)[C@H]21)C3(C)C [PCM-0214981] | 9.3
14 | CN1CCC(=C2c3ccccc3CCc3cccnc32)CC1 [PCM-0090351] | -2.8
15 | COc1cc2c(cc1OC)C(=O)C(CC1CCN(Cc3ccccc3)CC1)C2 (stereo not shown) [PCM-0090394] | -23.8
16 | COc1cc(-c2oc3cc(O)cc(O)c3c(=O)c2O[C@@H]2O[C@H](CO[C@@H]3O[C@@H](C)[C@H](O)[C@@H](O)[C@H]3O)[C@@H](O)[C@H](O)[C@H]2O)ccc1O [PCM-0216322] | 8.5
17 | C=C(C)[C@@H]1CC[C@]2(C(=O)O)CC[C@]3(C)[C@H](CC[C@@H]4[C@@]5(C)CC[C@H](O)[C@@](C)(CO)[C@@H]5CC[C@]43C)[C@@H]12 [PCM-0216604] | 26.3
18 | CC(C)C[C@H](NC(=O)[C@H](CCc1ccccc1)NC(=O)CN1CCOCC1)C(=O)N[C@@H](Cc1ccccc1)C(=O)N[C@@H](CC(C)C)C(=O)[C@@]1(C)CO1 [PCM-0095475] | -17.1
19 | CCOC(=O)[C@H](CCc1ccccc1)N[C@@H](C)C(=O)N1C(=O)N(C)C[C@H]1C(=O)O [PCM-0214860] | 7
20 | C=C(C)[C@@H]1CC[C@@]2(C)CCC(=O)C(C)=C2C1 [PCM-0216488] | -11.6
21 | CC(C)NCC(O)COc1ccc(CCOCC2CC2)cc1 (stereo not shown) [PCM-0064542] | 21
22 | c1ccc(-c2ccc(C(c3ccccc3)n3ccnc3)cc2)cc1 (stereo not shown) [PCM-0086296] | 33.5

Row | Structure (SMILES) | inhibition at 10 µM [%]
23 | O=C1CCCC(=O)C1C(=O)c1ccc(C(F)(F)F)cc1[N+](=O)[O-] [PCM-0216128] | -10
24 | COc1ccc2cc([C@H](C)C(=O)O)ccc2c1 [PCM-0000233] | -13.1
25 | O=c1[nH]c(=O)n([C@H]2C[C@H](O)[C@@H](CO)O2)cc1C(F)(F)F [PCM-0086194] | 2.3
26 | C[C@@H]1O[C@@H](O[C@H]2[C@H](Oc3c(-c4ccc(O)cc4)oc4cc(O)cc(O)c4c3=O)O[C@H](CO)[C@@H](O)[C@@H]2O)[C@H](O)[C@H](O)[C@H]1O [PCM-0216179] | -1.7
27 | COc1ccc(CC2c3cc(OC)c(OC)cc3CC[N+]2(C)CCC(=O)OCCCCCOC(=O)CC[N+]2(C)CCc3cc(OC)c(OC)cc3C2Cc2ccc(OC)c(OC)c2)cc1OC (stereo not shown) [PCM-0085763] | -16.3
28 | NC(=O)N1CCC(CC(=O)N2CCC([C@H]3c4ncc(Br)cc4CCc4cc(Cl)cc(Br)c43)CC2)CC1 [PCM-0095392] | 32.7
29 | Cc1cnc(C(=O)N[C@H]2CCCCC/C=C\[C@@H]3C[C@@]3(C(=O)NS(=O)(=O)C3CC3)NC(=O)[C@@H]3C[C@@H](Oc4nc5ccccc5c5ccccc45)CN3C2=O)cn1 [PCM-0216057] | 53.3
30 | Cc1[nH]nc(C(F)(F)F)c1Cc1sc2c(c1C(=O)N1C[C@](C)(O)CO1)c(=O)n(C)c(=O)n2C(C)C [PCM-0215606] | 6.9
31 | C[C@]12CC[C@@H]3c4ccc(O)cc4C[C@@H](CCCCCCCCC[S+]([O-])CCCC(F)(F)C(F)(F)F)[C@H]3[C@@H]1CC[C@@H]2O (stereo partly shown) [PCM-0214604] | 15.6
32 | CC(/C=C/C=C(\C)C(=O)O[C@@H]1O[C@H](CO[C@@H]2O[C@H](CO)[C@@H](O)[C@H](O)[C@H]2O)[C@@H](O)[C@H](O)[C@H]1O)=C\C=C\C=C(C)\C=C\C=C(/C)C(=O)O[C@@H]1O[C@H](CO[C@@H]2O[C@H](CO)[C@@H](O)[C@H](O)[C@H]2O)[C@@H](O)[C@H](O)[C@H]1O [PCM-0214941] | -8.6
33 | CO/N=C(\C(=O)N[C@@H]1C(=O)N2C(C(=O)O)=C(CSc3nc(=O)c(O)nn3C)CS[C@H]12)c1csc(N)n1 [PCM-0215203] | -16.2
34 | CC(C)NCC(O)c1ccc(NS(C)(=O)=O)cc1 (stereo not shown) [PCM-0065402] | -16.3
35 | O=C(CCCCCCC(=O)N/N=C/c1ccc(N(c2ccccc2)c2ccccc2)cc1)NO [PCM-0215937] | 15.4
36 | Cc1nn(C)c2c1C(c1ccc(C(F)(F)F)cc1)C(C#N)=C(N)O2 (stereo not shown) [PCM-0215442] | -6.9
37 | Cc1cccc(CN2CCN(C(c3ccccc3)c3ccc(Cl)cc3)CC2)c1 (stereo not shown) [PCM-0086087] | 67.2
38 | Oc1ccc2c(c1)OC[C@]1(O)Cc3cc(O)c(O)cc3[C@H]21 [PCM-0216323] | 0
39 | Cc1c(N)nc([C@H](CC(N)=O)NC[C@H](N)C(N)=O)nc1C(=O)N[C@H](C(=O)N[C@H](C)[C@@H](O)[C@H](C)C(=O)N[C@H](C(=O)NCCc1nc(-c2nc(C(=O)NCCC[S+](C)C)cs2)cs1)[C@@H](C)O)[C@@H](O[C@@H]1O[C@@H](CO)[C@@H](O)[C@H](O)[C@@H]1O[C@H]1O[C@H](CO)[C@@H](O)[C@H](OC(N)=O)[C@@H]1O)c1cnc[nH]1 [PCM-0215181] | 7.7
40 | Cc1cc(NC(=O)Nc2ccc(N(C)C)cc2)c2cc(F)cc(F)c2n1 [PCM-0095106] | 6.2
41 | CN(C)CCC(c1ccc(Br)cc1)c1ccccn1 (stereo not shown) [PCM-0064576] | -19.3
42 | CCCC(=O)O [PCM-0095272] | 0
43 | COc1cc(-c2oc3cc(O)cc(O)c3c(=O)c2O[C@@H]2O[C@H](CO[C@@H]3O[C@@H](C)[C@H](O)[C@@H](O)[C@H]3O)[C@@H](O)[C@H](O)[C@H]2O[C@@H]2O[C@@H](C)[C@H](O)[C@@H](O)[C@H]2O)ccc1O [PCM-0216372] | 7.7
44 | Cc1cc(N2C[C@@H](C)N[C@@H](C)C2)ncc1-c1ccc(-c2nc3c(ccn3C)c(=O)[nH]2)cc1 [PCM-0215615] | 7.7

Row | Structure (SMILES) | inhibition at 10 µM [%]
45 | COc1ccc(-c2nc(-c3cc(C(F)(F)F)cc(C(F)(F)F)c3)n(Cc3ccc(C(N)=O)cc3)c2-c2ccc(OC)cc2)cc1 [PCM-0215748] | 57.1
46 | O=Cc1ccccc1 [PCM-0216202] | -2.3
47 | CC1=C(/C=C/C(C)=C/C=C/C(C)=C/C(=O)O)C(C)(C)CCC1 [PCM-0065434] | -32.7
48 | C[C@](N)(Cc1ccc(O)c(O)c1)C(=O)O [PCM-0065509] | -18.7
49 | CN1CCN(Cc2ccc(-c3cnc4[nH]cc(-c5ccc6[nH]ccc6c5)c4c3)cc2)CC1 [PCM-0215377] | 111
50 | O=S(=O)(c1ccc2c(c1)C(=NO)c1cc(S(=O)(=O)N3CCCCC3)ccc1-2)N1CCCCC1 [PCM-0215952] | -18.5
51 | OCC1(O)COc2cc(O)ccc2-c2cc(O)c(O)cc2C1 (stereo not shown) [PCM-0216494] | 39.4
52 | CC(C)(C)c1cc(NC(=O)Nc2ccc(Oc3ccnc4[nH]c(=O)cnc34)cc2F)n(-c2ccccc2)n1 [PCM-0215780] | 61.4
53 | C=C1CCOC1=O [PCM-0215909] | 0.8
54 | O=C1CC(c2c[nH]c3ccc(F)cc23)C(=O)N1 (stereo not shown) [PCM-0215900] | -5.4
55 | Cc1ccc(S(=O)(=O)Nc2nc3ccccc3nc2Nc2ccc3nsnc3c2)cc1 [PCM-0094918] | -1.7
56 | O=C(O)[C@H](O)Cc1ccc(O)c(O)c1 [PCM-0215761] | 7.7
57 | C=C1C(=O)O[C@@H]2/C=C(\C)CC/C=C(\C)CC[C@@H]12 [PCM-0214614] | 46.7
58 | COc1ccc(-c2cc(=O)c3c(O)cc(O[C@@H]4O[C@H](CO[C@@H]5O[C@@H](C)[C@H](O)[C@@H](O)[C@H]5O)[C@@H](O)[C@H](O)[C@H]4O)cc3o2)cc1 [PCM-0216526] | 14.7
59 | Cc1nnsc1C(=O)Nc1ccc(-n2nc(C(F)(F)F)cc2C(F)(F)F)cc1 [PCM-0215731] | 22.4
60 | COc1ccc(-c2cc(=O)c3c(O)cc(O)cc3o2)cc1 [PCM-0216090] | 16.6
61 | CC(C)(CCCCCC(O)CCCCCC(C)(C)C(=O)O)C(=O)O [PCM-0215634] | 0.7
62 | CC(=O)O[C@@H]1C[C@@H]2CC[C@@]1(C)C2(C)C [PCM-0215932] | -21.4
63 | COc1c(-c2ccc3cc(NS(C)(=O)=O)ccc3c2)cc(-n2ccc(=O)[nH]c2=O)cc1C(C)(C)C [PCM-0216081] | 73.4
64 | Cc1cccc(-c2nn3c(c2-c2ccnc4ccc(C(N)=O)cc24)CCC3)n1 [PCM-0095269] | 11.7
